Structures are written as SMILES. Read-outs that look alike come from different tables or passages of the source.

In experiment [1] the test system is carrageenin-induced edema in the hind paw of a rat. The experiment in a line: Carrageenin Assay (carrageenin-induced edema, hind paw). It is filed as in vivo, rat (male, Long Evans strain). Conditions: Rattus norvegicus, 1 h before carrageenin, edema at 3 h, compared to phenylbutazone control values, read-out: % Reduction of Edema; for inhibition in vivo at 200 mg/kg: 200 mg/kg oral. The protocol:
The procedure employed is a modification of the method of Winter et al, Proc. Soc. Exptl. Biol. Med. 111:544 (1962). The device used for measurement of the paw volume is an adaptation of the water displacement procedure described by Adamkiewicz et al, Can. J. Biochem. Physiol. 33:332 (1955). Test compounds were administered orally, one hour prior to the intraplantar injection of 0.05 ml. of sterile 1.0 percent solution of carrageenin into the left hind paw of male rats (Long Evans strain) weighing between about 130-200 grams. At peak swelling time (3 hours) the volume of edema was calculated by differential paw volumes.
Table I sets forth the results obtained (indicated as percent reduction of edema compared to phenylbutazone control values) at the indicated dosages for each of the identified compounds.

For experiment [2], the system named is phenylquinone writhing in mice. The experiment is described as follows: Phenylquinone Writhing Assay (analgesia). Conditions: Mus musculus, po, read-out: Phenylquinone Writhing Assay (% Control), percent analgesia; for responders at 100 mg/kg: 100 mg/kg oral; for responders at 50 mg/kg: 50 mg/kg oral; for responders at 30 mg/kg: 30 mg/kg oral; for responders at 25 mg/kg: 25 mg/kg oral. The experiment is classed as in vivo, mouse (Carworth CF1 male mice). The protocol:
The phenylquinone writhing test was employed to evaluate analgesic activity according to the following procedure:
Phenylquinone (phenyl-p-benzoquinone, No. 7104, Eastman Organic Chemicals) is made up as a 0.02% aqueous solution in 5% ethyl alcohol. Phenylquinone solutions are made up fresh twice daily. Standard reference agents and the test compounds are dissolved or suspended in a 0.25% methylcellulose solution. A control group consisting of ten mice (Carworth CF1 male mice) are administered the 0.02% phenylquinone solution at a dose of 0.25 ml/mouse. The mice are housed individually and observed closely for ten minutes for exhibition of writhing. The onset of writhing occurs within three minutes and 100% of the mice must writhe within ten minutes. Test compounds are administered orally to groups of ten mice. The volume given is 0.01 ml/gram of body weight. Activity can be studied at 15, 30, 60, and 120 minutes after oral administration. After the designated time interval of a dose group has elapsed, the mice are challenged with phenylquinone intraperitoneally. Complete blocking of the writhing syndrom for the ten minute observation period in any one mouse is considered a positive analgesic response for that mouse. Conversely, if any mouse writhes definitely once it is considered not to be protected. The number of mice not writhing in group multiplied by ten equals percent analgesia for that dose at that time interval.

Regarding `CSc1nnc(C)c(C)n1` [Example 10, 3-methylthio-5,6-dimethyl-1,2,4-triazine], in experiment [1] (70 mg/kg oral), the inhibition in vivo at 70 mg/kg is 54%. The responders at 100 mg/kg in experiment [2] (0.5 h, 30 Min.) turned out to be 70%; in experiment [2] (1 h, 60 Min) it was 20%.
As to `CSc1nnc(-c2ccccn2)c(-c2ccccn2)n1` [Example 12, 3-methylthio-5,6-(2'-pyridyl)-1,2,4-triazine], the inhibition in vivo at 200 mg/kg in experiment [1] was determined as 19%. Also, the responders at 100 mg/kg in experiment [2] (0.5 h, 30 Min.) was 10%; in experiment [2] (1 h, 60 Min), 20%.
Regarding `COc1nncc(C(C)(C)C)n1` [Example 18, 3-methoxy-5-t-butyl-1,2,4-triazine], the inhibition in vivo at 200 mg/kg in experiment [1] was 64%. Also, the responders at 50 mg/kg in experiment [2] (0.5 h, 30 Min.) came to 40%.
Consider `COc1nncc(-c2ccco2)n1` [Example 20, 3-methoxy-5-(2'-furyl)-1,2,4-triazine], for which the inhibition in vivo at 175 mg/kg in experiment [1] (175 mg/kg oral) came out at 70%. The responders at 30 mg/kg in experiment [2] (0.5 h, 30 Min.) turned out to be 10%.
On to `COc1nncc(-c2ccc3ccccc3c2)n1` [Example 22, 3-methoxy-5-(2'-naphthyl)-1,2,4-triazine], for which the inhibition in vivo at 200 mg/kg in experiment [1] was 7%. Besides, the responders at 100 mg/kg in experiment [2] (0.25 h, 15 Min.) came out at 20%; in experiment [2] (0.5 h, 30 Min.), 10%; in experiment [2] (1 h, 60 Min), 10%.
As for `Cc1nnc(OC(C)C)nc1C` [Example 24, 3-isopropoxy-5,6-dimethyl-1,2,4-triazine], in experiment [1], the inhibition in vivo at 200 mg/kg is 37%. Besides, the responders at 70 mg/kg in experiment [2] (0.5 h, 70 mg/kg oral, 30 Min.) was 10%.
Regarding `OCCNc1nncc(-c2ccccc2)n1` [Example 28, 3-B-hydroxyethyl amino-5-phenyl-1,2,4-triazine], in experiment [1], the inhibition in vivo at 200 mg/kg came out at 43%. The responders at 100 mg/kg in experiment [2] (0.25 h, 15 Min.) was found to be 30%; in experiment [2] (0.5 h, 30 Min.), 10%; in experiment [2] (1 h, 60 Min), 10%.
Turning to `COc1nncc(-c2cccc3ccccc23)n1` [Example 29, 3-methoxy-5-(1'-naphthyl)-1,2,4-triazine], the inhibition in vivo at 200 mg/kg in experiment [1] came to 22%. In experiment [2] (0.25 h, 15 Min.), the responders at 30 mg/kg was found to be 10% and the responders at 100 mg/kg came out at 10%. For the same compound, the responders at 50 mg/kg in experiment [2] (0.5 h, 30 Min.) came out at 10%.
Take `CCCOc1nncc(-c2ccccc2)n1` [Example 31, 3-n-propoxy-5-phenyl-1,2,4-triazine]: the inhibition in vivo at 200 mg/kg in experiment [1] worked out at 51%. Also, the responders at 100 mg/kg in experiment [2] (0.25 h, 15 Min.) came out at 10%.
As for `COc1cc(-c2cnnc(SC)n2)ccc1O` [Example 32, 3-methylthio-5-(3'-methoxy-4'-hydroxyphenyl)-1,2,4-triazine], in experiment [1], the inhibition in vivo at 200 mg/kg is 5%. In addition, the responders at 100 mg/kg was determined as 30% in experiment [2] (0.25 h, 15 Min.); 10% in experiment [2] (0.5 h, 30 Min.); 10% in experiment [2] (1 h, 60 Min).
Regarding `CSc1nncc(C23CC4CC(CC(C4)C2)C3)n1` [Example 34, 3-methylthio-5-(1'-adamantyl)-1,2,4-triazine], the inhibition in vivo at 200 mg/kg in experiment [1] was determined as 17%. For the same compound, the responders at 100 mg/kg was 30% in experiment [2] (0.25 h, 15 Min.) and 10% in experiment [2] (0.5 h, 30 Min.).
With `CSc1nncc(-c2cc3ccccc3o2)n1` [Example 35, 3-methylthio-5-(2'-benzofuryl)-1,2,4-triazine], in experiment [1], the inhibition in vivo at 200 mg/kg turned out to be 2%. Also, the responders at 100 mg/kg in experiment [2] (0.25 h, 15 Min.) was 10%; in experiment [2] (0.5 h, 30 Min.), 10%; in experiment [2] (1 h, 60 Min), 10%.
For the compound `CSc1nncc(C2CC2)n1` [Example 37, 3-methylthio-5-cyclopropyl-1,2,4-triazine], the inhibition in vivo at 200 mg/kg in experiment [1] stood at 86%. In experiment [2] (0.25 h, 15 Min.), the responders at 100 mg/kg came out at 20%.
Regarding `COc1nncc(-c2ccc(OC)c(OC)c2)n1` [Example 38, 3-methoxy-5-(3',4'-dimethoxyphenyl)-1,2,4-triazine], the inhibition in vivo at 200 mg/kg in experiment [1] is 52%. In addition, the responders at 100 mg/kg came out at 20% in experiment [2] (0.5 h, 30 Min.) and 10% in experiment [2] (1 h, 60 Min).
Turning to `CSc1nncc(-c2c(C)cc(C)cc2C)n1` [Example 39, 3-methylthio-5-(2',4',6'-trimethylphenyl)-1,2,4-triazine], in experiment [1], the inhibition in vivo at 200 mg/kg is 7%. Besides, the responders at 100 mg/kg in experiment [2] (0.25 h, 15 Min.) came out at 10%; in experiment [2] (1 h, 60 Min) it was 10%.
For the compound `CSc1nncc(-c2ccc(N3CCOCC3)cc2)n1` [Example 40, 3-methylthio-5-(4'-morpholinophenyl)-1,2,4-triazine], the inhibition in vivo at 200 mg/kg in experiment [1] was 19%. Besides, the responders at 100 mg/kg in experiment [2] (0.25 h, 15 Min.) was 30%; in experiment [2] (0.5 h, 30 Min.), 10%.
Regarding `CSc1nncc(-c2ccc(F)cc2F)n1` [Example 42, 3-methylthio-5-(2',4'-difluorophenyl)-1,2,4-triazine], the inhibition in vivo at 150 mg/kg in experiment [1] (150 mg/kg oral) was 10%. For the same compound, the responders at 100 mg/kg came to 20% in experiment [2] (0.25 h, 15 Min.) and 10% in experiment [2] (0.5 h, 30 Min.).
With `CSc1nncc(-c2ccc(Br)cc2)n1` [Example 43, 3-methylthio-5-(4'-bromophenyl)-1,2,4-triazine], the inhibition in vivo at 200 mg/kg in experiment [1] was 20%. In addition, the responders at 100 mg/kg in experiment [2] (0.25 h, 15 Min.) came out at 10%; in experiment [2] (0.5 h, 30 Min.) it was 10%; in experiment [2] (1 h, 60 Min), 10%.
In the case of `COc1ccc(-c2cnnc(SC)n2)cc1` [Example 44, 3-methylthio-5-(4'-methoxyphenyl)-1,2,4-triazine], the inhibition in vivo at 200 mg/kg in experiment [1] is 18%. Besides, the responders at 100 mg/kg in experiment [2] (0.25 h, 15 Min.) was 10%; in experiment [2] (0.5 h, 30 Min.), 10%; in experiment [2] (1 h, 60 Min), 20%.
As for `COc1ccc(-c2nnc(N(C)CCO)nc2-c2ccc(OC)cc2)cc1` [Example 50, 3-(N-methyl-N-(B-hydroxyethyl)amino)-5,6-bis-(4'-methoxyphenyl)-1,2,4-triazine], the inhibition in vivo at 200 mg/kg in experiment [1] turned out to be 67%. For the same compound, in experiment [2] (0.25 h, 15 Min.), the responders at 25 mg/kg came out at 30%, the responders at 50 mg/kg is 60% and the responders at 100 mg/kg turned out to be 70%. In experiment [2] (0.5 h, 30 Min.), the responders at 25 mg/kg worked out at 40%, the responders at 50 mg/kg came out at 50% and the responders at 100 mg/kg came to 100%. Besides, in experiment [2] (1 h, 60 Min), the responders at 25 mg/kg came to 20%, the responders at 50 mg/kg was found to be 40% and the responders at 100 mg/kg stood at 80%.
Regarding `C[C@@H]1CC[C@H](C)N1c1nnc(-c2ccccc2)c(-c2ccccc2)n1` [Example 52, 3-(cis-2',5'-dimethylpyrrolidyl)-5,6-diphenyl-1,2,4-triazine], the inhibition in vivo at 200 mg/kg in experiment [1] worked out at 22%. Besides, the responders at 100 mg/kg in experiment [2] (0.5 h, 30 Min.) was determined as 30%; in experiment [2] (1 h, 60 Min) it was 10%.
Regarding `c1ccc(Oc2nnc(-c3ccccc3)c(-c3ccccc3)n2)cc1` [Example 53, 3-phenoxy-5,6-diphenyl-1,2,4-triazine], the inhibition in vivo at 200 mg/kg in experiment [1] was determined as 7%. For the same compound, the responders at 100 mg/kg in experiment [2] (0.25 h, 15 Min.) was 20%; in experiment [2] (1 h, 60 Min) it was 10%.
Turning to `CSc1nnc(-c2ccc(Cl)cc2)c(-c2ccc(Cl)cc2)n1` [Example 54, 3-methylthio-5,6-bis(4'-chlorophenyl)-1,2,4-triazine], in experiment [1], the inhibition in vivo at 200 mg/kg was determined as 7%. The responders at 100 mg/kg in experiment [2] (0.25 h, 15 Min.) was determined as 10%.
The matching figures for `CN(CCO)c1nnc(-c2ccccc2)c(-c2ccccc2)n1` [Example 55, 3-(N-methyl-N-B-hydroxyethylamino)-5,6-diphenyl-1,2,4-triazine]: 23% and 20%.
